In the supplement of paper PMC4862054:
“And” between values parts separate entries of the source, which are not always exact repeats. Equal values may be shown once.

What was measured:
Assay in all cases: normalised viability (% of control), CellTiter-Blue; higher = more viable cells (about 100 = DMSO control)
Conditions in all cases: incubation time: 72 h
[1] = system: CAL-85-1
Description: (§1)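 DSRT, CellTiter-Blue viability, 72 h incubation. Signal is normalised to DMSO and benzethonium chloride controls. Value is the normalised response at dose 9.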

[2] = system: HDQ-P1
Description: as §1

[3] = system: DU-4475
Description: as §1

[4] = system: CAL-148
Description: as §1

[5] = system: MDA-MB-453
Description: as §1

[6] = system: CAL-51
Description: as §1

[7] = system: CAL-85-1; remark: listed apart in the source
Description: (§2)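 DSRT, CellTiter-Blue viability, 72 h incubation. Signal is normalised to DMSO and benzethonium chloride controls. Value is the normalised response at dose 8.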

[8] = system: HDQ-P1; remark: listed apart in the source
Description: as §2

[9] = system: DU-4475; remark: listed apart in the source
Description: as §2

[10] = system: CAL-148; remark: listed apart in the source
Description: as §2

[11] = system: MDA-MB-453; remark: listed apart in the source
Description: as §2

[12] = system: CAL-51; remark: listed apart in the source
Description: as §2

[13] = system: CAL-85-1; remark: listed apart in the source
Description: (§3)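 DSRT, CellTiter-Blue viability, 72 h incubation. Signal is normalised to DMSO and benzethonium chloride controls. Value is the normalised response at dose 7.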

[14] = system: HDQ-P1; remark: listed apart in the source
Description: as §3

[15] = system: DU-4475; remark: listed apart in the source
Description: as §3

[16] = system: CAL-148; remark: listed apart in the source
Description: as §3

[17] = system: MDA-MB-453; remark: listed apart in the source
Description: as §3

[18] = system: CAL-51; remark: listed apart in the source
Description: as §3

Row | SMILES | normalised viability [7] | normalised viability [8] | normalised viability [9] | normalised viability [10] | normalised viability [11] | normalised viability [12] | also measured
1 | CC(=O)c1c(C)c2cnc(Nc3ccc(N4CCNCC4)cn3)nc2n(C2CCCC2)c1=O (10000 nM) | – | – | – | – | – | – | normalised viability [1]: 78.2%; normalised viability [2]: 93.5%; normalised viability [3]: 85.9%; normalised viability [4]: 87.6%; normalised viability [5]: 61.1%; normalised viability [6]: 50.8%
2 | O=NN(CCCl)C(=O)NCCCl [Carmustine] (3000 nM) | 95.7% | 108% | 90.5% | 102% | 118% | 102% | –
3 | O=P(O)(O)C(O)(Cn1ccnc1)P(=O)(O)O [Zoledronic acid] (3000 nM) | 96.8% | 89.4% | 121% | 90.1% | 111% | 113% | –
4 | O=P(O)(O)C(O)(Cn1ccnc1)P(=O)(O)O [Zoledronic acid] (10000 nM) | – | – | – | – | – | – | normalised viability [1]: 90.4%; normalised viability [2]: 106%; normalised viability [3]: 98%; normalised viability [4]: 96.1%; normalised viability [5]: 82.3%; normalised viability [6]: 103%
5 | CC[C@@H]1C(=O)OC[C@@H]1Cc1cncn1C [Pilocarpine] (12000 nM) | 92.5% | 127% | 88% | 105% | 117% | 107% | –
6 | C[C@]12CC[C@@H]3c4ccc(OC(=O)N(CCCl)CCCl)cc4CC[C@H]3[C@@H]1CC[C@@H]2O [Estramustine] (990 nM) | – | – | – | – | – | – | normalised viability [1]: 110%; normalised viability [2]: 99.5%; normalised viability [3]: 89.9%; normalised viability [4]: 111%; normalised viability [5]: 101%; normalised viability [6]: 84%
7 | Nc1ncn([C@@H]2O[C@H](CO)[C@@H](O)[C@H]2O)c(=O)n1 [Azacitidine] (3000 nM) | 93.8% | 105% | 99.7% | 89.5% | 101% | 109% | –
8 | Oc1ncnc2[nH]ncc12 [Allopurinol] (3000 nM) | 103% | 94.6% | 113% | 108% | 108% | 104% | –
9 | COc1cc2c(cc1O)CC[C@@H]1[C@@H]2CC[C@]2(C)[C@@H](O)CC[C@@H]12 [2-methoxyestradiol] (3000 nM) | 41.2% | 56.7% | 36.1% | 29.6% | 34.4% | 42.2% | –
10 | COc1cc(F)c(F)c(Nc2ccc(I)cc2F)c1NS(=O)(=O)C1(C[C@H](O)CO)CC1 [RDEA119] (10000 nM) | – | – | – | – | – | – | normalised viability [1]: 29.9%; normalised viability [2]: 51.1%; normalised viability [3]: 0.93%; normalised viability [4]: 71.5%; normalised viability [5]: 36.1%; normalised viability [6]: 60.4%
11 | COc1cc(F)c(F)c(Nc2ccc(I)cc2F)c1NS(=O)(=O)C1(C[C@H](O)CO)CC1 [RDEA119] (1000 nM) | – | – | – | – | – | – | normalised viability [13]: 54.1%; normalised viability [14]: 40.8%; normalised viability [15]: 0.64%; normalised viability [16]: 87.7%; normalised viability [17]: 67%; normalised viability [18]: 79.3%
12 | CC1=C2C[C@H]3[C@@H](CC=C4C[C@@H](O)CC[C@@]43C)[C@@H]2CC[C@]12O[C@@H]1C[C@H](C)CN[C@H]1[C@H]2C [Cyclopamine] (3000 nM) | 99.7% | 105% | 122% | 111% | 105% | 109% | –
13 | CC(=O)c1c(C)c2cnc(Nc3ccc(N4CCNCC4)cn3)nc2n(C2CCCC2)c1=O (3000 nM) | 102% | 120% | 102% | 103% | 63.6% | 69.6% | –
14 | CC(C)(C)c1cnc(CSc2cnc(NC(=O)C3CCNCC3)s2)o1 [SNS-032] (3000 nM) | 3.68% | 14.4% | 4.8% | 18.8% | 15.8% | 8.52% | –
15 | Cn1cc(C2=Nc3cc(NC(=O)C(N)C4CCCCC4)cc4c3C2=CNNC4=O)cn1 (centres undefined) (3000 nM) | 50.7% | 51.6% | 62.3% | 21.9% | 25.2% | 80.6% | –
16 | O=P(O)(O)C(O)(Cn1ccnc1)P(=O)(O)O [Zoledronic acid] (1000 nM) | – | – | – | – | – | – | normalised viability [13]: 88.4%; normalised viability [14]: 95.7%; normalised viability [15]: 120%; normalised viability [16]: 92.5%; normalised viability [17]: 86.8%; normalised viability [18]: 101%
17 | Cc1sc2c(c1C)C(c1ccc(Cl)cc1)=N[C@@H](CC(=O)OC(C)(C)C)c1nnc(C)n1-2 [(+)JQ1] (3000 nM) | 40.5% | 94.8% | 0.9% | 36.9% | 23.3% | 74.3% | –
18 | C[C@]12CC[C@@H]3c4ccc(OC(=O)N(CCCl)CCCl)cc4CC[C@H]3[C@@H]1CC[C@@H]2O [Estramustine] (297 nM) | 86.5% | 93.6% | 118% | 97.5% | 101% | 92.5% | –
19 | Cn1cnc2c(F)c(Nc3ccc(Br)cc3Cl)c(C(=O)NOCCO)cc21 [Selumetinib] (3000 nM) | 59.3% | 76.5% | 0.16% | 91.9% | 108% | 86.9% | –
20 | COc1cc(F)c(F)c(Nc2ccc(I)cc2F)c1NS(=O)(=O)C1(C[C@H](O)CO)CC1 [RDEA119] (3000 nM) | 33.4% | 36.1% | 1.46% | 75.7% | 54.9% | 69.9% | –
21 | C[C@]1(O)C[C@@H](c2nc(-c3ccc4ccc(-c5ccccc5)nc4c3)c3c(N)nccn32)C1 [OSI-906] (3000 nM) | 85.5% | 50.5% | 106% | 95.6% | 73.9% | 88.3% | –
22 | CC1(C)CNc2cc(NC(=O)c3cccnc3NCc3ccncc3)ccc21 [Motesanib] (3000 nM) | 86.3% | 72.7% | 101% | 86.7% | 80.8% | 104% | –
23 | CC(=O)c1c(C)c2cnc(Nc3ccc(N4CCNCC4)cn3)nc2n(C2CCCC2)c1=O (1000 nM) | – | – | – | – | – | – | normalised viability [13]: 98.9%; normalised viability [14]: 99.5%; normalised viability [15]: 94.6%; normalised viability [16]: 107%; normalised viability [17]: 66.2%; normalised viability [18]: 72.8%
24 | Nc1nc2[nH]cnc2c(=S)[nH]1 [Thioguanine] (3000 nM) | 75.7% | 86.4% | 115% | 78.4% | 110% | 103% | –
25 | O=C1CN2Cc3c(ccc(Cl)c3Cl)N=C2N1 [Anagrelide] (3000 nM) | 84.8% | 85.4% | 97.8% | 94.8% | 112% | 78.4% | –
26 | C[C@]1(O)C[C@@H](c2nc(-c3ccc4ccc(-c5ccccc5)nc4c3)c3c(N)nccn32)C1 [OSI-906] (10000 nM) | – | – | – | – | – | – | normalised viability [1]: 67.4%; normalised viability [2]: 32.4%; normalised viability [3]: 92.6%; normalised viability [4]: 118%; normalised viability [5]: 65.9%; normalised viability [6]: 81%
27 | CC(=O)O[C@@]12CO[C@@H]1C[C@H](O)[C@@]1(C)C(=O)[C@H](O)C3=C(C)[C@@H](OC(=O)[C@H](O)[C@@H](NC(=O)OC(C)(C)C)c4ccccc4)C[C@@](O)([C@@H](OC(=O)c4ccccc4)[C@H]21)C3(C)C [Docetaxel] (300 nM) | 30.9% and 28.7% | 37.9% and 31.2% | 12.4% and 8.14% | 22.2% and 19.1% | 24.4% and 23.9% | 17.9% and 12% | –
28 | C[C@]1(O)C[C@@H](c2nc(-c3ccc4ccc(-c5ccccc5)nc4c3)c3c(N)nccn32)C1 [OSI-906] (1000 nM) | – | – | – | – | – | – | normalised viability [13]: 91.9%; normalised viability [14]: 55.5%; normalised viability [15]: 77.3%; normalised viability [16]: 95%; normalised viability [17]: 93.7%; normalised viability [18]: 86.9%
29 | C[C@]12CC[C@@H]3c4ccc(OC(=O)N(CCCl)CCCl)cc4CC[C@H]3[C@@H]1CC[C@@H]2O [Estramustine] (99 nM) | – | – | – | – | – | – | normalised viability [13]: 102%; normalised viability [14]: 97.1%; normalised viability [15]: 106%; normalised viability [16]: 119%; normalised viability [17]: 99.7%; normalised viability [18]: 85.8%
